In patent US8080535B2, “Hyaluronic acid nutritional supplements and methods of using the same” (Leneau Holdings, LLC, priority 2001, dated 2011):

Legend:
[1] = system: human patients suffering pain and discomfort associated with rheumatoid arthritis; experiment: Oral ingestion of hyaluronic acid by patients afflicted with rheumatoid arthritis, subjective pain score 0 to 10; format: in vivo; settings: scale 0 to 10; about 1 mg oral solution for 30 days; average prior to the study 8.47; 15 of seventeen patients responded
Description: Another study involving seventeen human patients suffering pain and discomfort associated with rheumatoid arthritis was undertaken. Each patient received about 1 mg of an oral hyaluronic acid solution for a period of 30 days. Each patient was asked to evaluate his or her subjective pain feeling and report the score on a scale of 0 to 10, wherein 0 means no pain and/or stiffness whatsoever and 10 means worst imaginable pain and/or stiffness. Prior to the start of the study, the patients reported as follows: […]

[2] = system: patients suffering from osteoarthritis; experiment: Oral ingestion of hyaluronic acid by patients suffering from osteoarthritis, subjective pain feeling; format: in vivo, human; settings: of sixty-seven osteoarthritis patients; 1-4 mg oral 1 to 4 times a day
Description: A study involving sixty-seven patients suffering from osteoarthritis was undertaken to determine the effectiveness of oral ingestion of hyaluronic acid. Each patient received 1-4 mg of hyaluronic acid by oral ingestion administration 1 to 4 times a day over periods ranging from about […], during which period the patients' subjective pain feeling was reported. […] Fourteen patients reported no change in the amount of pain they felt.

[3] = system: human patients suffering pain and discomfort associated with fibromyalgia; experiment: Oral ingestion of hyaluronic acid by patients afflicted with fibromyalgia, subjective pain feeling; format: in vivo
Description: Another study involving thirty-five human patients suffering pain and discomfort associated with fibromyalgia was undertaken to evaluate the effectiveness of oral ingestion of hyaluronic acid. Each patient received about 1 to about 6 mg of hyaluronic acid by oral ingestion administration of concentrate diluted into beverages or food. Over a treatment period of about 1 to about 14 months, the patients' subjective pain feeling was reported. Twenty-one patients reported no pain after hyaluronic acid therapy. Six patients (17.1%) reported some (60%) degree of pain relief. Eight patients reported no change in the amount of pain they felt.

[4] = of thirty-five fibromyalgia patients, about 1 to about 6 mg oral, about 1 to about 14 months

## hyaluronic acid
[1]
  average subjective pain and/or stiffness score at completion of the 30-day study: 3.47
[2]
  patients reported no change in the amount of pain: Fourteen
  patients reported no pain and increased range of motion: Twenty-nine
  patients reported no pain and increased range of motion (percent of patients): 43.3%
  patients reported some degree of pain relief and some increased range of motion: Twenty-four
  patients reported some degree of pain relief and some increased range of motion (percent of patients): 35.8%
[3]; [4]
  patients reported no change in the amount of pain: Eight
  patients reported no pain after hyaluronic acid therapy: Twenty-one
  patients reported some degree of pain relief: Six
  patients reported some degree of pain relief (percent of patients): 17.1%
[3]; printed in brackets in the sentence on the six patients with some pain relief
  some (60%) degree of pain relief: 60%
